Assay results: ChEMBL document CHEMBL1139863, “Synthesis and in vitro antiprotozoal activities of dicationic 3,5-diphenylisoxazoles” (J Med Chem, 2007)

Key:
[1] = test system: Trypanosoma brucei rhodesiense; assay: Antitrypanosomal activity against Trypanosoma brucei rhodesiense; assay type: functional, organism-based
[2] = test system: Plasmodium falciparum; assay: Antiplasmodial activity against chloroquine-resistant Plasmodium falciparum K1; assay type: functional, organism-based
[3] = test system: L6; assay: Cytotoxicity against rat L6 cells; assay type: cell-based

Row | Structure (SMILES) | IC50 [1] [nM] | IC50 [2] [nM] | IC50 [3] [nM]
1 | CC(C)NC(=N)c1cccc(-c2cc(-c3cccc(C(=N)NC(C)C)c3)on2)c1 | 4980 | 43.1 | > 180000
2 | CC(C)NC(=N)c1ccc(-c2cc(-c3ccc(C(=N)NC(C)C)cc3)on2)cc1 | 196 | 6.6 | > 176000
3 | c1cc(-c2cc(-c3ccc(C4=NCCN4)cc3)on2)ccc1C1=NCCN1 | 87.2 | 4.1 | 1800
4 | N=C(N)c1ccc(-c2cc(-c3ccccc3)on2)cc1 | 1120 | > 3300 | 18500
5 | COc1cc(C(=N)N)ccc1-c1cc(-c2ccc(C(=N)N)cc2)no1 | 10.6 | 6 | 122000
6 | N=C(N)c1ccc(-c2cc(-c3ccc(C(=N)N)cc3[N+](=O)[O-])no2)cc1 | 32.4 | 14.9 | 22200
7 | COc1cc(C(=N)N)ccc1-c1cc(-c2cccc(C(=N)N)c2)no1 | 6.5 | 3.5 | 177000
8 | N=C(N)c1cccc(-c2cc(-c3ccc(C(=N)N)cc3Cl)no2)c1 | 11.6 | 14.1 | 87400
9 | N=C(N)c1ccc(-c2cc(-c3ccc(C(=N)N)cc3[N+](=O)[O-])on2)cc1 | 13.9 | 14.9 | 15800
10 | N=C(N)c1ccc(-c2cc(-c3ccc(C(=N)N)cc3Cl)on2)cc1 | 15.5 | 7.9 | 41000
11 | c1cc(C2=NCCN2)cc(-c2cc(-c3ccc(C4=NCCN4)cc3)on2)c1 | 1550 | 51.2 | 65000
12 | CC(C)NC(=N)c1ccc(-c2cc(-c3cccc(C(=N)NC(C)C)c3)on2)cc1 | 316 | 34.7 | > 186000
13 | c1cc(C2=NCCN2)cc(-c2cc(-c3ccc(C4=NCCN4)cc3)no2)c1 | 974 | 77 | 30200
14 | N=C(N)c1ccc(-c2cc(-c3ccc(C(=N)N)cc3Cl)no2)cc1 | 23.2 | 55.5 | 5700
15 | COc1cc(C(=N)N)ccc1-c1cc(-c2ccc(C(=N)N)cc2)on1 | 16.4 | 66.3 | 92600
16 | N=C(N)c1ccc(-c2cc(-c3cccc(C(=N)N)c3)no2)cc1 | 6.3 | 57.8 | 24100
17 | N=C(N)c1cccc(-c2cc(-c3ccc(C(=N)N)cc3[N+](=O)[O-])on2)c1 | 9 | 25.9 | 48000
18 | N=C(N)c1cccc(-c2cc(-c3ccc(C(=N)N)cc3Cl)on2)c1 | 6.3 | 18.7 | 82700
19 | CC(C)NC(=N)c1ccc(-c2cc(-c3cccc(C(=N)NC(C)C)c3)no2)cc1 | 488 | 10.6 | > 187000
20 | N=C(N)c1ccc(-c2cc(-c3ccccc3)no2)cc1 | 1720 | > 3300 | 19100
21 | N=C(N)c1ccc(-c2cc(-c3cccc(C(=N)N)c3)on2)cc1 | 3.5 | 2.5 | 31200
22 | COc1cc(C(=N)N)ccc1-c1cc(-c2ccc(C(=N)N)cc2OC)on1 | 13 | 6.1 | 84800
23 | N=C(N)c1ccc(-c2cc(-c3ccc(C(=N)N)cc3)on2)cc1 | 5.1 | 22.6 | 2100
24 | N=C(N)c1cccc(-c2cc(-c3cccc(C(=N)N)c3)on2)c1 | 29 | 9.2 | 153000
25 | N=C(N)c1cccc(-c2cc(-c3ccc(C(=N)N)cc3[N+](=O)[O-])no2)c1 | 19.4 | 30.4 | > 206000
26 | c1cc(C2=NCCN2)cc(-c2cc(-c3cccc(C4=NCCN4)c3)on2)c1 | 18500 | 227 | 26200
27 | COc1cc(C(=N)N)ccc1-c1cc(-c2cccc(C(=N)N)c2)on1 | 5.9 | 8.9 | 136000
28 | C[C@@H]1CC[C@H]2[C@@H](C)C(=O)O[C@@H]3O[C@@]4(C)CC[C@@H]1[C@]32OO4 [ARTEMISININ] | – | 6.7 | –
29 | N=C(N)c1ccc(-c2ccc(-c3ccc(C(=N)N)cc3)o2)cc1 [FURAMIDINE] | – | – | 16400
30 | Nc1nc(N)nc(Nc2ccc([As]3SCC(CO)S3)cc2)n1 (centres undefined) [MELARSOPROL] | 6.4 | – | –
